We go through one molecule from US9758502B2, “Dihydropyrone compounds and herbicides comprising the same” (SUMITOMO CHEMICAL COMPANY, LIMITED, priority 2012, dated 2017).

The assay deals with Echinochloa crus-galli. Briefly: Test 1-1 Post-emergence Treatment Test. The assay is classed as in vivo. The note with it: sprayed on whole plants at 1-2 leaf stages, treatment amount 1,000 g/10,000 m^2, after 20 days of the treatment, greenhouse. How it is done: Here an efficacy for controlling weeds on the present compound was visually observed and evaluated in 11 criteria of 0 to 10 (0 represents no action, 10 represents complete death and the intermediate efficacy were evaluated in 1 to 9 criteria).
Commercial soil for propagation was put in a pot measuring 8 cm in diameter and 6.5 cm in height, and in the pot, seeds of Echinochloa crus-galli were sown, and then covered with soil of about 0.5 cm thickness and the plants were grown in a greenhouse. When the plants were grown to 1-2 leaf stages, a predetermined amount of a chemical diluted solution containing a compound (1-1) was uniformly spayed on the whole plants. Here the chemical diluted solution was prepared by dissolving a predetermined amount of the compound (1-1) in dimethylformamide solution containing 2% of Tween 20 (polyoxyetylene sorbitan fatty acid ester) (manufactured by MP Biomedicals Inc.) and then diluting the solution with deionized water. After spraying, plants were grown in a greenhouse and after 20 days of the treatment, the efficacy for Echinochloa crus-galli was observed and the controlling effect was evaluated.
Similarly, the present compounds (1-2) to (1-11) and (1-13) were also tested.

Consider `CCc1cc(C)cc(CC)c1C1=C(O)CC(C(C)CS(=O)(=O)c2ccc(C(F)(F)F)cn2)OC1=O` (stereo not shown) [(1-13)], for which the “efficacy for controlling weeds (visually observed, 11 criteria of 0 to 10)” value was no less than 9.
